Measurements published in ChEMBL document CHEMBL2440052, “Quinazolinecarboline alkaloid evodiamine as scaffold for targeting topoisomerase I and sirtuins” (Bioorg Med Chem, 2013).
Active and inactive are the calls of the source. The calls are words filed in the database; no cut-off is given here.

Experiments:
[1] = target: T1, NAD-dependent protein deacetylase sirtuin-2 (Homo sapiens) (UniProt Q8IXJ6); experiment: Inhibition of recombinant GST-SIRT2 (unknown origin) using KI179 as substrate at 200 uM after 45 mins by fluorescence assay
T1 sequence (whole entry): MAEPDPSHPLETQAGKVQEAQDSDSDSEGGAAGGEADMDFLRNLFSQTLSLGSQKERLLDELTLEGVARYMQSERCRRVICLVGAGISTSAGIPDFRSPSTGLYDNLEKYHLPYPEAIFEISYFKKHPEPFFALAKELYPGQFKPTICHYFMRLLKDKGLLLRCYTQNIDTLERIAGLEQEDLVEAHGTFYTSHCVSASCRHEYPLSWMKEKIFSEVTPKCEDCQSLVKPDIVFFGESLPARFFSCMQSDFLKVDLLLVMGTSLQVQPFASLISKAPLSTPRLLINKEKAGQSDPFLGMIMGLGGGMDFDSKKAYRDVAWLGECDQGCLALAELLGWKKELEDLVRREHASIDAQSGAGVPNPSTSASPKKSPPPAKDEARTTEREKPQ

[2] = Cytotoxicity against human H460 cells after 72 hrs by MTT assay; type: functional, cell-based; settings: NCI-H460, 72 h
[3] = target: T2, NAD-dependent protein deacetylase sirtuin-3, mitochondrial (Homo sapiens) (UniProt Q9NTG7); experiment: Inhibition of recombinant His-SIRT3 (unknown origin) using KI179 as substrate at 200 uM after 45 mins by fluorescence assay
T2 sequence (whole entry): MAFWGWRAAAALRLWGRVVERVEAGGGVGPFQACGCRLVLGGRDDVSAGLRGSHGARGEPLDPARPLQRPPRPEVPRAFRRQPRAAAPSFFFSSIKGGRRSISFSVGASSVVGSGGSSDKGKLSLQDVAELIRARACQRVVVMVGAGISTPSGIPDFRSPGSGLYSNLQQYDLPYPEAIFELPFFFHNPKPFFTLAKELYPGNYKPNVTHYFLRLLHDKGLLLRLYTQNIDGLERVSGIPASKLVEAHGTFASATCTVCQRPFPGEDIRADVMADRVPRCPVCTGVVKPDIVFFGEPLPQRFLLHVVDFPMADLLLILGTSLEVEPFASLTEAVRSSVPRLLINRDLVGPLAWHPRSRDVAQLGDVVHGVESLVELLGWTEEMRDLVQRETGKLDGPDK

[4] = target: T3, NAD-dependent protein deacetylase sirtuin-1 (Homo sapiens) (UniProt Q96EB6); experiment: Inhibition of recombinant GST-SIRT1 (unknown origin) using KI177 as substrate at 50 uM after 45 mins by fluorescence assay
T3 sequence (whole entry): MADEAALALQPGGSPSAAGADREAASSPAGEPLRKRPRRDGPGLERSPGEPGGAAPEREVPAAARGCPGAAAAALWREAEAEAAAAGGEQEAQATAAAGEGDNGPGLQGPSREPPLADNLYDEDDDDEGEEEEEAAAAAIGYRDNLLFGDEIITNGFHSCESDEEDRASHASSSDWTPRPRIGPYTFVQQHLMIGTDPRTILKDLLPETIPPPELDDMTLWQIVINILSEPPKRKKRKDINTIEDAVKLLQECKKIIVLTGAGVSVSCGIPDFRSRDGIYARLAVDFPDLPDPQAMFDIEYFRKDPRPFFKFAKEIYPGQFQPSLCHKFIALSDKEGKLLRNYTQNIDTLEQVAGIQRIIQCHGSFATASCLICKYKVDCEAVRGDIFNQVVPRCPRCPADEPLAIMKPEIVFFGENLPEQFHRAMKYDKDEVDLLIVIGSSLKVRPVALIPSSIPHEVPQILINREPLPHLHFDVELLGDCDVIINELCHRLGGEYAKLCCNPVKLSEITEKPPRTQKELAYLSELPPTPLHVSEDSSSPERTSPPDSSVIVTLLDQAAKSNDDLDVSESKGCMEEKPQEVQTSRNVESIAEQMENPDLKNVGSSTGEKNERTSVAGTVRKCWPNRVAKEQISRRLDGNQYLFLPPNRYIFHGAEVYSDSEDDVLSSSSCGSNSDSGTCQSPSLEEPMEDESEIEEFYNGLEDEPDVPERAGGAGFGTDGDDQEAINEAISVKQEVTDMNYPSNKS

[5] = test system: MCF7; experiment: Cytotoxicity against human MCF7 cells at 15 uM after 72 hrs by MTT assay relative to control; type: functional; settings: MCF7, 72 h, values are per cent of control
[6] = test system: HepG2; experiment: Cytotoxicity against human HepG2 cells at 15 uM after 72 hrs by MTT assay relative to control; type: functional; settings: HepG2, 72 h, values are per cent of control
[7] = target: T1, NAD-dependent protein deacetylase sirtuin-2 (Homo sapiens); experiment: Inhibition of recombinant GST-SIRT2 (unknown origin) using KI179 as substrate at 168 uM after 45 mins by fluorescence assay
[8] = target: T2, NAD-dependent protein deacetylase sirtuin-3, mitochondrial (Homo sapiens); experiment: Inhibition of recombinant His-SIRT3 (unknown origin) using KI179 as substrate at 168 uM after 45 mins by fluorescence assay
[9] = target: T4, DNA topoisomerase 1 (Homo sapiens) (UniProt P11387); experiment: Inhibition of human recombinant topoisomerase 1-mediated relaxation of supercoiled pBR322 at 500 uM after 60 mins by agarose gel electrophoresis
T4 sequence (whole entry): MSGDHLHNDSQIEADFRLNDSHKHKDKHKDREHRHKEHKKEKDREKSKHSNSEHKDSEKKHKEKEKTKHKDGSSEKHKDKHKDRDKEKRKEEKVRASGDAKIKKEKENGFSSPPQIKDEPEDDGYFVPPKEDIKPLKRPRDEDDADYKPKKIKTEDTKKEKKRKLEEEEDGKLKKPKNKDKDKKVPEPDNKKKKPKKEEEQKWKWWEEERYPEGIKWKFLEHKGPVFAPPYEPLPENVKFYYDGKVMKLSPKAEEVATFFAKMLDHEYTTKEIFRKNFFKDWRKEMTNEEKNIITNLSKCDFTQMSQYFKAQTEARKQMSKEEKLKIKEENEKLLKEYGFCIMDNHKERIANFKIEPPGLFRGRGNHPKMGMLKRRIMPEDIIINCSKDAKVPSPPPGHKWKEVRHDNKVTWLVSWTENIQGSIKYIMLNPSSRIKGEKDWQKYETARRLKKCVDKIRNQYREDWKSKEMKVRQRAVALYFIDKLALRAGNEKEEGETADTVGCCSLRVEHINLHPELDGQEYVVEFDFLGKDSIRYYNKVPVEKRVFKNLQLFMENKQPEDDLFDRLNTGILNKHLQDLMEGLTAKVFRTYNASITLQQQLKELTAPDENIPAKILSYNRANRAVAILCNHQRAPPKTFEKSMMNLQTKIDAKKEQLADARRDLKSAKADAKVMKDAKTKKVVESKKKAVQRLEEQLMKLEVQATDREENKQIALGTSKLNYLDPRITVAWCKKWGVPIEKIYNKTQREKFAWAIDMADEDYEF

[10] = target: T4, DNA topoisomerase 1 (Homo sapiens); experiment: Inhibition of human recombinant topoisomerase 1-mediated DNA cleavage assessed as formation of nicked DNA from supercoiled pBR322 DNA up to 100 uM after 60 mins by agarose gel electrophoresis
[11] = target: T4, DNA topoisomerase 1 (Homo sapiens); experiment: Inhibition of human recombinant topoisomerase 1-mediated relaxation of supercoiled pBR322 at 50 to 100 uM after 60 mins by agarose gel electrophoresis

inhibition [1] [%]	inhibition [3] [%]	inhibition [4] [%]	inhibition [7] [%]	inhibition [8] [%]	inhibition [9]	inhibition [10]	inhibition [11]	Structure (SMILES)	IC50 [2] [µM]	viability, % of control at 15 µM [5] [%]	viability, % of control at 15 µM [6] [%]
78	17	7.8						COC(=O)[C@H]1Cc2c([nH]c3ccccc23)[C@@H]2N(C)c3ccccc3C(=O)N12	24	96	90
80	21	3.3						COC(=O)[C@@H]1Cc2c([nH]c3ccccc23)[C@H]2N(C)c3ccccc3C(=O)N12	35	90	101
								CN1c2ccccc2C(=O)N2[C@@H](C(=O)O)Cc3c([nH]c4ccccc34)[C@H]12	> 30	103	107
								CN1c2ccccc2C(=O)N2[C@@H](C(=O)N3CCSCC3)Cc3c([nH]c4ccccc34)[C@H]12	> 100	105	89
62	26	6.4						CNC(=O)[C@@H]1Cc2c([nH]c3ccccc23)[C@H]2N(C)c3ccccc3C(=O)N12	53	94	101
								CNC(=O)[C@H]1Cc2c([nH]c3ccccc23)[C@@H]2N(C)c3ccccc3C(=O)N12	> 30	108	101
36		4.1						CN1c2ccccc2C(=O)N2[C@H](C(=O)N3CCOCC3)Cc3c([nH]c4ccccc34)[C@@H]12	73	131	88
		4.2	71	20	Active	inactive	inactive	CN1c2ccccc2C(=O)N2CCc3c([nH]c4ccccc34)[C@H]21	2.6	44	69
								CN1CCN(C(=O)[C@H]2Cc3c([nH]c4ccccc34)[C@@H]3N(C)c4ccccc4C(=O)N23)CC1	55	74	91
60	61	26						CN1c2ccccc2C(=O)N2[C@H](C(=O)O)Cc3c([nH]c4ccccc34)[C@@H]12	60	128	107
35		8.2						CN1c2ccccc2C(=O)N2[C@H](C(=O)N3CCSCC3)Cc3c([nH]c4ccccc34)[C@@H]12	86.8	103	90
43		5.3						CN1CCN(C(=O)[C@@H]2Cc3c([nH]c4ccccc34)[C@H]3N(C)c4ccccc4C(=O)N23)CC1	66	68	83
		1.1	58	21	Active	inactive	inactive	CN1c2ccccc2C(=O)N2CCc3c([nH]c4ccccc34)[C@@H]21 [EVODIAMINE]	13.2	51	76
								CN1c2ccccc2C(=O)N2[C@@H](C(=O)N3CCCCC3)Cc3c([nH]c4ccccc34)[C@H]12	8.5	63	75
46		6.5						CN1c2ccccc2C(=O)N2[C@H](C(=O)N3CCCCC3)Cc3c([nH]c4ccccc34)[C@@H]12	49	85	110
								CN1c2ccccc2C(=O)N2[C@@H](C(=O)N3CCOCC3)Cc3c([nH]c4ccccc34)[C@H]12	58.3	72	94
